This data set is described as follows: Cyclic voltammetry. The data set is classed as physicochemical. The conditions noted are these: for E1/2 −1/0, first value of cell (anodic peak) / E1/2 −1/0, second value of cell (cathodic peak) / E −2/−1 (reduction of monoanion into dianion) / Epa2 0/+1 / Epc2 0/+1: CH2Cl2, NBu4PF6, Pt, 100 mV.s^−1; for potential difference between the second and the first oxidation potentials: CH2Cl2, NBu4PF6. The text has this: The redox properties of the various gold(III) bis(dithiolene) and bis(diselenolene) complexes were investigated by cyclic voltammetry using the same conditions, dichloromethane solutions and NBu4PF6 as supporting electrolyte. Under these conditions, the nature of the counter-ion, Ph4P^+ or Et4N^+, had no influence on the redox properties observed, due to ion exchange with the Bu4N^+ of the supporting electrolyte. Thus, only the result of one monoanion is included in Table 1, even if the two salts were analyzed. For all the investigated monoanionic bis(dithiolene) complexes, three redox processes are observed on the cyclic voltammograms. On the anodic scan, the two oxidation waves correspond to the oxidation of the monoanionic species into the neutral and to the monocationic complex. Most of these complexes had the tendency to deposit on the electrode once oxidized and frequently a strong desorption peak was observed on the reversible scan. This phenomenon occurs essentially for the complex with an exocyclic sulfur atom, [AuSR(=S)]^−1. On the cathodic scan, an irreversible process associated with the reduction in the monoanion into the dianion occurs (Scheme 2). […] The presence of oxygen instead of sulfur makes the oxidation of the monoanionic into the neutral species easier. On the other hand, the presence of electron-withdrawing substituents such as =C(CN)2 induces an anodic shift of the oxidation potentials by 300 mV, compared with the =O derivative, leading to a monoanion which is more difficult to oxidize than the other complexes of the series. […] Indeed, the potential difference between the second and the first oxidation potentials amounts to 470 mV and 410 mV for the =O and the =C(CN)2 derivatives, respectively, while for the =S analogues this value is smaller (170 mV). […] For comparison, we also investigated the redox behavior of Auranofin using the same experimental conditions in CH2Cl2 in the presence of NBu4PF6 as a supporting electrolyte. Using these conditions, upon anodic scan only one irreversible oxidation process is observed at 1.42 V vs. SCE. Therefore, all these monoanionic gold bis(dithiolene) and bis(diselenolene) complexes are easier to oxidize than Auranofin.
All reagents and materials from commercial sources were used without further purification. NMR spectra were recorded at room temperature using CDCl3 unless otherwise stated (Figures S7–S15). Chemical shifts are reported in ppm and ^1H NMR spectra were referenced to residual CHCl3 (7.26 ppm) and ^13C NMR spectra were referenced to CHCl3 (77.2 ppm). Mass spectra were recorded with an Agilent 6510 instrument for organics compounds and with a Thermo-Fisher Q-Exactive instrument for complexes by the Center Régional de Mesures Physiques de l’Ouest, Rennes. Cyclic voltammograms (CV)s were carried out on a 10^−3 M solution of complex in CH2Cl2-[NBu4] [PF6] 0.1 M. CVs were recorded on a Biologic SP-50 instruments at 0.1 Vs^−1 on a platinum disk electrode. Potentials were measured versus KCl Saturated Calomel Electrode (SCE). Column chromatography was performed using silica gel Merck 60 (70–260 mesh). The solvents were purified and dried by standard methods. The proligand 2-SEt(=C(CN2)), [72] and complexes [N][AuSMe(=S)], [73] [N][AuSEt(=S)], [74] [P][AuSEt(=O)], [75] [N][AuSeEt(=S)] [75] and [P][AuSPr(=S)] [76] were synthesized according to the previously reported procedure.

Marks after values point to notes of the source that are not given here.

On to `CCn1c2c(sc1=S)[S][Au-]1([S]c3sc(=S)n(CC)c3[S]1)[S]2` [[AuSEt(=S)]^−1], for which the “E1/2 −1/0, first value of cell (anodic peak)” value (shortened to “E1/2 −1/0, first value of cell”) came out at 0.55 V vs. SCE; the “E1/2 −1/0, second value of cell (cathodic peak)” value (“E1/2 −1/0, second value of cell” below) came out at 0.49 V vs. SCE; the “E −2/−1 (reduction of monoanion into dianion)” value is on record as −0.90 V vs. SCE; the “Epa2 0/+1” value amounted to 0.71 V vs. SCE. Moreover, the “Epc2 0/+1” value was determined as 0.61 V vs. SCE.
Turning to `Cn1c2c(sc1=S)[S][Au-]1([S]c3sc(=S)n(C)c3[S]1)[S]2` [[AuSMe(=S)]^−1], the “E1/2 −1/0, first value of cell” value worked out at 0.51 V vs. SCE; the “E1/2 −1/0, second value of cell” value is 0.44 V vs. SCE; the “E −2/−1 (reduction of monoanion into dianion)” value is recorded as −0.85 V vs. SCE; the “Epa2 0/+1” value was 0.73 V vs. SCE. The “Epc2 0/+1” value stood at 0.56 V vs. SCE.
On to `CCCn1c2c(sc1=S)[Se][Au-]1([Se]c3sc(=S)n(CCC)c3[Se]1)[Se]2` [[AuSePr(=S)]^−1], for which the “E1/2 −1/0, first value of cell” value is 0.54/− ** V vs. SCE; the “E −2/−1 (reduction of monoanion into dianion)” value is reported as −0.90 V vs. SCE; the “Epa2 0/+1” value is reported as 0.95/− V vs. SCE.
In the case of `CCN1C(=C(C#N)C#N)SC2=C1[S][Au-]1([S]2)[S]C2=C([S]1)N(CC)C(=C(C#N)C#N)S2` [[AuSEt(=C(CN)2)]^−1], the “potential difference between the second and the first oxidation potentials” value is 410 mV; the “E1/2 −1/0, first value of cell” value came out at 0.71 V vs. SCE; the “E1/2 −1/0, second value of cell” value is 0.66 V vs. SCE; the “Epa2 0/+1” value worked out at 1.13 V vs. SCE. The “Epc2 0/+1” value was 1.06 V vs. SCE.
As to `CCn1c2c(sc1=[Se])[S][Au-]1([S]c3sc(=[Se])n(CC)c3[S]1)[S]2` [[AuSEt(=Se)]^−1], the “E1/2 −1/0, first value of cell” value is 0.40/− ** V vs. SCE and the “E −2/−1 (reduction of monoanion into dianion)” value was −0.80 ** V vs. SCE.
For the compound `CC(C)n1c2c(sc1=S)[Se][Au-]1([Se]c3sc(=S)n(C(C)C)c3[Se]1)[Se]2` [[AuSeiPr(=S)]^−1], the “E1/2 −1/0, first value of cell” value stood at 0.62 V vs. SCE; the “E1/2 −1/0, second value of cell” value stood at 0.57 V vs. SCE; the “E −2/−1 (reduction of monoanion into dianion)” value is listed as −0.94 V vs. SCE; the “Epa2 0/+1” value is 0.75/− V vs. SCE.
Consider `CCCn1c2c(sc1=[Se])[S][Au-]1([S]c3sc(=[Se])n(CCC)c3[S]1)[S]2` [[AuSPr(=Se)]^−1], for which the “E1/2 −1/0, first value of cell” value is reported as 0.45/− ** V vs. SCE and the “E −2/−1 (reduction of monoanion into dianion)” value was −0.84 ** V vs. SCE.
For the compound `CCn1c2c(sc1=O)[S][Au-]1([S]c3sc(=O)n(CC)c3[S]1)[S]2` [[AuSEt(=O)]^−1], the “potential difference between the second and the first oxidation potentials” value amounted to 470 mV; the “E1/2 −1/0, first value of cell” value stood at 0.42 V vs. SCE; the “E1/2 −1/0, second value of cell” value is given as 0.36 V vs. SCE; the “E −2/−1 (reduction of monoanion into dianion)” value is −1.05 ** V vs. SCE. The “Epa2 0/+1” value was determined as 0.89 V vs. SCE and the “Epc2 0/+1” value is 0.83 V vs. SCE.
With `CCCn1c2c(sc1=S)[S][Au-]1([S]c3sc(=S)n(CCC)c3[S]1)[S]2` [[AuSPr(=S)]^−1], the “E1/2 −1/0, first value of cell” value is 0.56 V vs. SCE; the “E1/2 −1/0, second value of cell” value worked out at 0.53 V vs. SCE; the “E −2/−1 (reduction of monoanion into dianion)” value is listed as −0.85 ** V vs. SCE; the “Epa2 0/+1” value came out at 0.73 V vs. SCE. Further, the “Epc2 0/+1” value is 0.64 V vs. SCE.
As for `CCn1c2c(sc1=[Se])[Se][Au-]1([Se]c3sc(=[Se])n(CC)c3[Se]1)[Se]2` [[AuSeEt(=Se)]^−1], the “E1/2 −1/0, first value of cell” value is reported as 0.43/− ** V vs. SCE and the “E −2/−1 (reduction of monoanion into dianion)” value was −0.84 ** V vs. SCE.
As to `CCn1c2c(sc1=S)[Se][Au-]1([Se]c3sc(=S)n(CC)c3[Se]1)[Se]2` [[AuSeEt(=S)]^−1], the “E1/2 −1/0, first value of cell” value is 0.52/− ** V vs. SCE and the “E −2/−1 (reduction of monoanion into dianion)” value is −0.89 ** V vs. SCE.

The record behind these values is article PMC9266914, “Broad Spectrum Functional Activity of Structurally Related Monoanionic Au(III) Bis(Dithiolene) Complexes” (International Journal of Molecular Sciences, 2022).
